Our source for the IC50 and viability values is article PMC10054552, “Phototoxic Potential of Different DNA Intercalators for Skin Cancer Therapy: In Vitro Screening” (International Journal of Molecular Sciences, 2023).

Holding throughout (type): cell-based, human
The test system of data set [1] is MET1 cells. Nature of the data set: Phototoxicity assay in MET1 cells (irradiation 2.5 J/cm², resazurin). The following applies: Homo sapiens, MET-1, light or radiation study, MET1 cells, treated 24 h. The method, then:
(§1) The […] SCC cell line (human squamous cell carcinoma) was obtained from Ximbio (London, UK), HaCaT (immortalized human keratinocytes cell line) was obtained from Addexbio (San Diego, CA, USA) and WM983b (human metastatic melanoma cell line) was obtained from Rockland (Pottstown, PA, USA). […] Cells were cultivated in an incubator (Sanyo MCO-19AIC-UV) at 37 °C in a 5% CO2 humidified atmosphere. […] The plates were incubated for 24 h, followed by washing with PBS supplemented with calcium and magnesium. Afterwards, complete culture medium without phenol red was added, and the plates were irradiated from above and submitted to a dose of 2.5 J/cm2 of irradiation emitted by different wavelength light sources coupled with a homemade irradiation system created in our laboratory. […] This experiment was performed in an incubator that was able to keep plates in a dark environment; therefore, the dark control plates were protected from any light source, as well as the others, with the exception of the irradiation that each one was submitted to. Plates were incubated for another 24 h, and finally, the resazurin assay was performed as previously described in Section 3.3. For the phototoxicity study using WM983b cells, plates were prepared at a cell density of 40,000 cells/cm2, and cells were treated with MB and AO only.

Experiment in data set [2]: as above
The following applies: human, MET1 squamous cell carcinoma cells, MET1 cells, dark. The method, then: as §1

Data set [3] has as its system MET1 cells. Put plainly: Cytotoxicity (resazurin cell viability) in MET1 cells. The following applies: Homo sapiens, MET-1, MET1 cells, 1.25-320 µM. The source says: (§2) The MET1 SCC cell line (human squamous cell carcinoma) was obtained from Ximbio (London, UK), HaCaT (immortalized human keratinocytes cell line) was obtained from Addexbio (San Diego, CA, USA) and WM983b (human metastatic melanoma cell line) was obtained from Rockland (Pottstown, PA, USA). Cells were maintained in Dulbecco’s Modified Eagle Medium (DMEM) supplemented with 10% (v/v) fetal bovine serum (FBS) for MET1 and HaCaT and 5% (v/v) for WM983b cells, and Pen–Strep (penicillin 100 U/mL and streptomycin 100 µg/mL). Cells were cultivated in an incubator (Sanyo MCO-19AIC-UV) at 37 °C in a 5% CO2 humidified atmosphere.
(§3) First, 96-well plates were seeded with HaCaT and MET1 cells at a density of 20,000 cells/cm² and incubated for 24 h. After that period, the culture medium was replaced by culture medium containing different compounds: MB, AO, GV, QT, CUR, EGCG, PHE, NEO and BIPY. The compounds were diluted in culture medium using a range of concentrations of each compound from 1.25 µM to 320 µM (in quadruplicate). The medium was aspirated from the 96-well plate and replaced by the samples diluted in medium. Cells cultured with complete medium and cells cultured with medium supplemented with 0.2% (v/v) or 10% (v/v) of DMSO were used as negative (NC), solvent (SC) and positive controls (PC), respectively. The plates were incubated for 24 and 48 h, followed by evaluation of cell viability using a colorimetric assay. Cells containing samples were washed with PBS supplemented with calcium and magnesium; then, resazurin solution diluted in DMEM at 0.02 mg/mL was added. The medium containing resazurin was also dispensed in wells without cells, which were used as references. After 3 h of incubation, the absorbance was measured in a microplate reader (ELX800UV, Biotek Instruments) at wavelengths of 570 nm and 600 nm. The corrected absorbance was proportional to cell viability. Propagation of uncertainties was used to calculate the combined standard uncertainty. For the cytotoxicity study using WM983b cells, plates were seeded at a density of 40,000 cells/cm², and cells were treated only with MB and AO.

For another data set, the system named is HaCaT cells. Put plainly: Cytotoxicity (resazurin cell viability) in HaCaT cells. The following applies: Homo sapiens, HaCaT cells, 1.25-320 µM.
Description: as §2, §3

Setting [4] is: 24 h exposure, read-out: IC50 MET1 Cells 24 h.
The mark [5] stands for this setting: 48 h exposure, read-out: IC50 MET1 Cells 48 h.
Setting [6] is: 24 h exposure, read-out: IC50 HaCaT Cells 24 h.
[7] abbreviates: 48 h exposure, read-out: IC50 HaCaT Cells 48 h.

Like-named read-outs stand apart in the source and are kept apart here.

Turning to `CN(C)c1ccc(C(=C2C=CC(=[N+](C)C)C=C2)c2ccc(N(C)C)cc2)cc1` [Gentian violet, gentian violet], the IC50 with MET1 cells [1] (254 nm light, 2.5 J/cm², read-out: IC50 254 nm) came out at 1500 nM; in the data set on MET1 cells [1] (457 nm light, 2.5 J/cm², read-out: IC50 457 nm), 2700 nM; in the data set on MET1 cells [1] (583 nm light, 2.5 J/cm², read-out: IC50 583 nm) it was 1000 nM; in the data set with MET1 cells [1] (640 nm light, 2.5 J/cm², read-out: IC50 640 nm), 1800 nM; in the data set on MET1 cells [1] (dark control (no irradiation), read-out: IC50 Dark) it was 2900 nM; in the data set on MET1 cells [3] (setting [4]), 3900 nM. The IC50 is 1200 nM in the data set with MET1 cells [3] (setting [5]), 2800 nM in the data set on HaCaT cells (setting [6]) and 900 nM in the data set with HaCaT cells (setting [7]). Also, the viability at 24 h, 1.25 µM in data set [2] (1.25 µM, read-out: relative cell viability, dark condition, lowest concentration) was below 60%.
On to `Cc1ccc2ccc3ccc(C)nc3c2n1` [Neocuproine, neocuproine], for which, in data set [2] (1.25-40 µM, read-out: cell viability under dark conditions), the viability at 24 h was below 70%. Further, the IC50 with MET1 cells [3] (setting [4]) was above 320000 nM; in the data set on MET1 cells [3] (setting [5]) it was above 320000 nM; in the data set on HaCaT cells (setting [6]) it was above 320000 nM; in the data set on HaCaT cells (setting [7]), 159000 nM.
